The values below come from US20190388377A1, “COMPOSITIONS AND METHODS FOR THE TREATMENT OF LIVER DISEASES AND DISORDERS” (AXCELLA HEALTH INC., priority 2018, published 2019).

One test relates to Human CCL2 (MCP-1). Kind of test: MCP1 secretion by ELISA after 24 h, PHH model for NASH, Example 2. It is filed as cell-based. The note with it: FFA+TNFα. As to the method: (§1) PHH from two healthy human donors (Lonza, TRL) were seeded on day 0 at density of 6e04 cells in 96 well optical microplates (Thermofisher) in hepatocyte plating media (William's E medium, WEM) (Gibco) supplemented with 10% heat-inactivated FBS (Atlanta Bio), 2 mM Glutamax (Gibco), and 0.2% Primocin (InVivoGen) and incubated for 6 hours at 37° C., 5% CO2. After 6 hours, cells were washed twice and incubated overnight at 37° C., 5% CO2 with Hepatocytes defined medium (Corning) supplemented with 2 mM Glutamax (Gibco), and 1× Penicillin/Streptomycin. On day 1, cells were washed twice and incubated for 24 h in the hepatocyte culture media in the same conditions described above.
(§2) On day 2, cells were washed twice with DPBS 1× (Gibco) to remove excess amino acids and maintained in pretreatment media (1×HMDB, a defined custom amino acid concentration based on the mean physiological concentrations in blood, in WEM±supplemental amino acids): • a. Amino acid-free WEM (US Biologicals) supplemented with 11 mM Glucose (Sigma), 0.272 mM Sodium Pyruvate (Sigma), 1× P/S (Gibco) and containing 1×HMDB with no supplemental amino acids; or • b. The same media described above 1×HMDB WEM with supplemental amino acid and amino acid combination treatments at various concentrations. Cells were maintained in the defined media (a. & b.) for 24 hours at 37° C., 5% CO2. The HMDB values are published in the Human Metabolome Database (Wishart D S, Tzur D, Knox C, et al., HMDB: the Human Metabolome Database. Nucleic Acids Res. 2007 January; 35 (Database issue):D521-6. 17202168; which is hereby incorporated by reference in its entirety). Co-Treatment with Free Fatty Acids and Amino Acids Combination
(§3) After 24 h pre-treatment, cells maintained in the pretreatment media±supplemental amino acids (section (a. & b.) described above) were exposed to free fatty acids (FFA) at 250 uM with a ratio of 2:1 (Oleate:Palmitate) supplemented with TNF-α (Thermofisher) at 1 ng/ml. Cells were incubated with the FFAs mixture (FFAs+TNF-α)±supplemental amino acids treatments for 24 hours at 37° C., 5% CO2. After 24 hours incubation, media was removed for cytokine analysis and replaced by fresh media containing the same conditions described above (FFAs mixture±supplemental amino acids treatments). Cells were incubated for an additional 48 hours for a total of 72 hours of FFA and TNF-α stimulation. After 72 hours of incubation, media was removed for albumin and urea analysis and the cells were fixed for nuclei and lipid staining.
Human CCL2 (MCP-1) was measured by ELISA (Human […] DuoSet ELISA, R&D Systems) at 1/20 dilution in 1× Reagent Diluent (Reagent Ancillary Kit 2, R&D Systems). MCP1 data in primary human hepatocytes treated with FFA+TNFα+supplemental amino acids was normalized to 1×HMDB WEM+FFA+TNFα baseline. Data is reported as median fold change from control, statistical analysis was done using t-Test.

For test [1], the system named is primary human hepatocytes. Kind of test: Intracellular lipid accumulation after 72 h by fluorescence microscopy, PHH model for NASH, Example 2. To be noted: FFA+TNFα; for Lipid Median (median fold change from control): 72 h. Format: cell-based. The procedure:
as §1, §2, §3
After 72 hours, cells were washed twice in 100 ul PBS 1× (Gibco), fixed with 4% Paraformaldehyde, and washed twice with PBS 1× (100 ul). After fixation, lipids were stained with HCS LipidTOX Red Neutral (Thermofisher Scientific) diluted 1000× and nuclei were stained with Hoechst 3342 (Life Technologies) diluted to 4 ug/ml. The LipidTOX™ neutral lipid stain has an extremely high affinity for neutral lipid droplets that was detected by fluorescence microscopy using a high content imager (Molecular Devices). Data was normalized to the cell concentration determined by nuclei count. Images were analyzed and total lipid area was calculated using granularity module in MetaXpress 6 software. Data is reported as median fold change from control, statistical analysis was done using t-Test.

The subject of a further test is Albumin. Kind of test: Albumin secretion after 72 h by ELISA, PHH model, Example 2. The note with it: FFA+TNFα. Format: cell-based, human. The procedure: as §1, §2, §3
Albumin secretion was measured as a functionality test in primary human hepatocytes. Albumin was measured by ELISA (Human Albumin ELISA Quantitation set, Bethyl Laboratories) at 1/200 dilution in the sample diluent (Bethyl Laboratories). Data is reported as median fold change from control, statistical analysis was done using t-Test.
In general terms: In an ELISA, binding on a coated surface is turned into a signal by an enzyme label.

Another test has as its system Urea. Kind of test: Urea production after 72 h by urea nitrogen (BUN) colorimetric assay, PHH model, Example 2. It is filed as cell-based, human. The note with it: FFA+TNFα. The procedure:
as §1, §2, §3
Urea was measured as an indicator of hepatocytes functionality by urea nitrogen direct assay (StanBio). Cell supernatant was added to the BUN color reagent and BUN acid reagent at 1(color):2(acid) ratio. Incubate the cell supernatant with BUN reagent for 12 min at 100° C. then for 5 min at 4° C. Read absorbance at 520 nm. Data was normalized to the control. Data is reported as median fold change from control, statistical analysis was done using t-Test.

In another test the test system is Procollagen III. Kind of test: Procollagen III secretion by ELISA, TGFβ1-stimulated hepatic stellate cells, Example 4. Format: cell-based, human. To be noted: HSC, three donors. The procedure: Primary human hepatic stellate cells were obtained from Samsara Sciences. Cells from three different donors were grown in Complete HSC Medium to ˜80% confluence in T75 or T150 flasks below passage 10 were seeded into sterile, collagen I coated, 96-well optical plastic microplates (ThermoScientific) and incubated overnight at 37° C., 5% CO2 in a humidified incubator in DMEM with 2% Fetal Bovine Serum and 1% Antimycotic. […] After 24 hours of stimulus, supernatant was removed and used to measure Procollagen III and cells were then washed and fixed with 4% paraformaldehyde for further staining. Procollagen III, an important biomarker of fibrosis was measured by ELISA (Human PCIII Elisa Kit, G-Biosciences) following the manufacturer's recommendations. Fixed cells with 4% paraformaldehyde were permeabilized with 0.1% Triton X-100 then immunostained for alpha SMA and labeled for EdU incorporation.

Test [2] has as its system alpha smooth muscle actin (αSMA). Kind of test: HSC activation by alpha SMA immunostaining, TGFβ1-stimulated hepatic stellate cells. It is filed as cell-based, human. The procedure:
Primary human hepatic stellate cells were obtained from Samsara Sciences. Cells from three different donors were grown in Complete HSC Medium to ˜80% confluence in T75 or T150 flasks below passage 10 were seeded into sterile, collagen I coated, 96-well optical plastic microplates (ThermoScientific) and incubated overnight at 37° C., 5% CO2 in a humidified incubator in DMEM with 2% Fetal Bovine Serum and 1% Antimycotic. […] After 24 hours of stimulus, supernatant was removed and used to measure Procollagen III and cells were then washed and fixed with 4% paraformaldehyde for further staining.
Procollagen III, an important biomarker of fibrosis was measured by ELISA (Human PCIII Elisa Kit, G-Biosciences) following the manufacturer's recommendations. Fixed cells with 4% paraformaldehyde were permeabilized with 0.1% Triton X-100 then immunostained for alpha SMA and labeled for EdU incorporation.
Cells were imaged using ImageXpress micro confocal high content imager (Molecular Devices). […] Image analysis was performed using MetaXpress version 6.2.3.733 (Molecular Devices).
Fixed cells immunostained for alpha smooth muscle actin (αSMA) were analyzed and stained area was normalized to total nuclei count. Fold change were calculated relative to the baseline amino acid (1×HMDB) condition stimulated with 3 ng/mL TGFβ1.

Test [3] concerns primary human hepatocytes. Kind of test: Intracellular triglyceride level after 72 h, colorimetric assay, Example 3. It is filed as cell-based. As to the method:
On day 2, cells were washed twice with DPBS 1× (Gibco) and maintained in: • a. Amino acid-free WEM (US Biologicals) supplemented with 11 mM Glucose (Sigma), 0.272 mM Sodium Pyruvate (Sigma), 1× P/S (Gibco) and containing a defined custom amino acid concentration based on the mean physiological concentrations in blood (1× HMDB WEM (−) supplemental amino acids); or • b. The same media described above 1×HMDB WEM (+) supplemental amino acids treatment dose at a 30× of HMDB amino acid concentration. Cells were maintained in the defined amino acids media (a. & b.) for 24 hours at 37° C., 5% CO2. Co-Treatment with Free Fatty Acids and Various Amino Acids Supplemental Treatments
After 24 h pre-treatment, cells maintained in the same media (a. & b.) described above 1×HMDB±supplemental amino acids were now exposed to free fatty acids (FFA) at 250 uM with a ratio of 2:1 (Oleate:Palmitate) supplemented with TNF-α (Thermofisher) at 1 ng/ml or vehicle. Cells with the FFAs+TNFα mixture±amino acids treatments were incubated for 72 hours at 37° C., 5% CO2 with a media change after the first 24 hours.
After 72 hours, cells were washed once with cold PBS 1× (Gibco), scrapped off and collected into 75 ul of standard diluent (Cayman). Collected cells were vortexed for 1 min at a 2500 rpm speed followed by two times sonication (Elmasonic sonicator) for 1 min each. Supernatants were collected for triglyceride analysis after centrifugation at 1000 rpm for 10 min at 4° C. Intracellular triglyceride level was assessed using triglyceride colorimetric assay kit (Cayman) and following manufacturer's recommendations. Data was normalized to the total amount of protein using Bicinchoninic Acid Protein Assay Kit (Sigma). Data is reported as median fold change from FFAs+TNFα condition, statistical analysis was done using t-Test.

As for `N=C(N)NCCC[C@H](N)C(=O)O` [R, L-arginine], in the test with Human CCL2 (MCP-1) (hepatocyte donor 1), the “MCP1 secretion (in words)” value is reported as “did not reduce MCP1 secretion”. Further, the “lipid accumulation (in words)” value in test [1] (hepatocyte donor 1) is “did not reduce lipid accumulation”. Besides, the “albumin secretion (in words)” value with Albumin (hepatocyte donor 1) was “did not reduce albumin secretion”. Besides, the “urea production (in words)” value in the test with Urea (hepatocyte donor 1) is listed as “induced urea production”. In addition, the “procollagen III secretion (in words)” value in the test with Procollagen III is listed as “had no impact on procollagen III secretion”. In test [2], the “alpha SMA stained area (in words)” value is reported as “reduced the alpha SMA stained area”.

As for `CC[C@H](C)[C@H](N)C(=O)O` [I, L-isoleucine], in the test on Human CCL2 (MCP-1) (hepatocyte donor 1), the “MCP1 secretion (in words)” value is “did not reduce MCP1 secretion”. The “Lipid Median (median fold change from control)” value in test [1] (donor 1, AA Conc. 20X) is given as −0.105. Also, the “lipid accumulation (in words)” value in test [1] (hepatocyte donor 1) was “reduced lipid accumulation”. Besides, the “albumin secretion (in words)” value in the test with Albumin (hepatocyte donor 1) is “did not reduce albumin secretion”. The “urea production (in words)” value with Urea (hepatocyte donor 1) is given as “No changes in urea production”. The “procollagen III secretion (in words)” value in the test on Procollagen III was “had no impact on procollagen III secretion”.

With `CC(C)C[C@H](N)C(=O)O` [L, L-leucine], the “MCP1 secretion (in words)” value in the test with Human CCL2 (MCP-1) (hepatocyte donor 1) was “did not reduce MCP1 secretion”. In test [1] (donor 1, AA Conc. 20X), the “Lipid Median (median fold change from control)” value was −0.725. In test [1] (hepatocyte donor 1), the “lipid accumulation (in words)” value is given as “reduced lipid accumulation”. Besides, the “albumin secretion (in words)” value with Albumin (hepatocyte donor 1) is on record as “decreased albumin production at a higher level than the previously described amino acids”. The “urea production (in words)” value in the test on Urea (hepatocyte donor 1) is given as “No changes in urea production”. For the same compound, the “procollagen III secretion (in words)” value in the test with Procollagen III was “had no impact on procollagen III secretion”.

Consider `CC(C)[C@H](N)C(=O)O` [V, L-Valine], for which, in the test on Human CCL2 (MCP-1) (hepatocyte donor 1), the “MCP1 secretion (in words)” value was “did not reduce MCP1 secretion”. Further, the “Lipid Median (median fold change from control)” value in test [1] (donor 1, AA Conc. 20X) is reported as −0.685. For the same compound, the “lipid accumulation (in words)” value in test [1] (hepatocyte donor 1) was “reduced lipid accumulation”. Also, the “albumin secretion (in words)” value in the test with Albumin (hepatocyte donor 1) is “decreased albumin production at a higher level than the previously described amino acids”. For the same compound, in the test with Procollagen III, the “procollagen III secretion (in words)” value is “had no impact on procollagen III secretion”.

For the compound `NC(=O)CC[C@H](N)C(=O)O` [Q, L-glutamine], the “MCP1 secretion (in words)” value in the test with Human CCL2 (MCP-1) (hepatocyte donor 1) is “did not reduce MCP1 secretion”. In addition, in test [1] (donor 1, AA Conc. 20X), the “Lipid Median (median fold change from control)” value is given as −0.588. For the same compound, the “lipid accumulation (in words)” value in test [1] (hepatocyte donor 1) is recorded as “reduced lipid accumulation”. In addition, the “albumin secretion (in words)” value in the test with Albumin (hepatocyte donor 1) was “decreased albumin production at a higher level than the previously described amino acids”. The “urea production (in words)” value in the test with Urea (hepatocyte donor 1) is given as “No changes in urea production”. Moreover, the “procollagen III secretion (in words)” value in the test on Procollagen III was “decreased procollagen III secretion but at a lower extent than LIRNacCar and LIRQNacSCar”.

In the case of `N[C@@H](CO)C(=O)O` [S, L-serine], the “MCP1 secretion (in words)” value with Human CCL2 (MCP-1) (hepatocyte donor 1) is “did not reduce MCP1 secretion”; in the test with Human CCL2 (MCP-1) (hepatocyte donor 2), “did not affect MCP1 secretion”. The “Lipid Median (median fold change from control)” value is listed as −0.178 in test [1] (donor 1, AA Conc. 25X) and −0.42 in test [1] (donor 2, AA Conc. 30X). Besides, the “lipid accumulation (in words)” value is recorded as “reduced lipid accumulation” in test [1] (hepatocyte donor 1) and “reduced lipid accumulation but less than the previously described combinations” in test [1] (hepatocyte donor 2). Further, the “albumin secretion (in words)” value is on record as “decreased albumin production at a higher level than the previously described amino acids” in the test on Albumin (hepatocyte donor 1) and “reduced albumin secretion” in the test with Albumin (hepatocyte donor 2). The “urea production (in words)” value in the test on Urea (hepatocyte donor 1) is given as “No changes in urea production”; in the test with Urea (hepatocyte donor 2), “slightly induce urea production”. In test [3] (FFA + TNF, 72 h, two donors, AA Conc 1X, Nac/Car 0 mM), the “Triglyceride Level relative to the baseline FFA + TNF, Median” value is listed as −0.176. The “triglyceride level (in words)” value in test [3] (FFAs+TNFα, two healthy donors) is given as “didn't have an impact on triglycerides”. Further, the “procollagen III secretion (in words)” value in the test on Procollagen III is “had no impact on procollagen III secretion”.
